Paper PMC10931833, “Simultaneous Purification of Human Interferon Alpha-2b and Serum Albumin Using Bioprivileged Fluorinated Ionic Liquid-Based Aqueous Biphasic Systems” (International Journal of Molecular Sciences, 2024)
Where two headings read alike, the source gives them in different places. One block for each compound: values may come before it.

Legend:
[1] = target: T1, FITC-BSA (Bos taurus, UniProt P02769); test: MST binding to FITC-BSA; design: species or system bovine; settings: 0.41 μM BSA
T1 construct: purchased Millipore Sigma-Aldrich
T1 sequence (P02769 25-607): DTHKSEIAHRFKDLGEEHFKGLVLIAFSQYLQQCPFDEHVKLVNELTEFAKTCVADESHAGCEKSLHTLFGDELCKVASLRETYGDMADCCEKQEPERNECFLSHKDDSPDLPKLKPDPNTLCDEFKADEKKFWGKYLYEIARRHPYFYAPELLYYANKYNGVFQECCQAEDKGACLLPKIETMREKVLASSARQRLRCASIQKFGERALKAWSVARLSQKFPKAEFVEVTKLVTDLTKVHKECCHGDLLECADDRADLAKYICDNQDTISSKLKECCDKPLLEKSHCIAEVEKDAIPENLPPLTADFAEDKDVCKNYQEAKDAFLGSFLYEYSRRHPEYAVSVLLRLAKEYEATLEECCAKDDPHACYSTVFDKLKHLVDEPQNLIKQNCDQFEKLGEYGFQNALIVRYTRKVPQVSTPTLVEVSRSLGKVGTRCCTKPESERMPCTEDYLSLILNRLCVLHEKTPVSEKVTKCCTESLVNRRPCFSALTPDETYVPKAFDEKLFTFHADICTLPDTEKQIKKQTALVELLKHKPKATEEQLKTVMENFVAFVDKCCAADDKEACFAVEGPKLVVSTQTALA
Description: Herein, a commercial FITC labeling kit (Section 3) was used to fluorescently tag both IFN- α 2b and BSA. Typically, in the labeling process, one amine per protein is labeled, statistically distributing the position of the dye. […] The MST assay was performed as detailed in Section 3. The solutions were prepared with a concentration of IFN- α 2b and BSA fixed at 0.41 μ M in water. For IFN- α 2b a concentration of 2.7 μ M was also prepared to compare it with previous results on MST-binding between FILs and IFN- α 2b fluorescently labeled with a different tag. In each run of MST, a maximum concentration of a ligand is selected and consecutively diluted in sixteen capillaries. […] The experimental conditions of the MST assay only allow the study of the aggregation phenomenon individually for the first CAC.
Microscale thermophoresis (MST) measurements of the dye-labeled protein were used to conduct binding investigations. […] MST tests were conducted in a monolith NT.115 (blue/red) in accordance with the NanoTemper Technologies methodology. Medium MST power and 20% LED power (nano-blue) were set as the instrument’s default settings. For every MST measurement, a PBS buffer was used. The concentration of FITC-BSA was fixed at 0.4 μ M and FITC-IFN- α 2b was tested under two different concentrations (of 0.4 and 2.7 μ M). The ligand was used to create a set of 16 1:1 dilutions, with the starting ligand concentrations ranging from 10 to 400 mM. The typical parameters for MST traces were used for recording: […], 30 s MST power on, and 5 s MST power off. The data from three independently conducted pipetted experiments were examined using NanoTemper Technologies’ MO.Affinity Analysis software, version 2.3.

[2] = target: T2, BSA (Bos taurus, UniProt P02769); test: Far-UV CD secondary structure of BSA (CONTIN-LL deconvolution); assay type: physicochemical, bovine; design: Regular Alpha Helix / Distorted Alpha Helix / Regular Beta Sheet / Distorted Beta Sheet / Turns / Unordered: unit not given here; settings: 1.0 mg/mL BSA, 25 °C
T2 construct: purchased Millipore Sigma-Aldrich
T2 sequence (P02769 25-607): as above
Description: Circular dichroism (CD) is widely used to study the secondary structures of proteins, peptides and nucleic acids, because it requires a low concentration sample, is a nondestructive method, allows studying a wide range of variables (temperature, pH, etc.), and provides information on the effect of added ligands on protein folding and interactions. Far-UV (190–260 nm) CD spectroscopy was used to assess the IFN- α 2b and BSA secondary structure since the spectra are characteristic of different structural elements.
Circular dichroism (CD) spectra were collected in a 10 mm quartz cuvette and a Chirascan spectropolarimeter (Applied Photophysics, UK) at room temperature. All CD spectra were recorded in the far-UV range of 190 to 260 nm at scan rates of 50 nm/min, with 4 accumulations, and a response time of 3 s; CD spectra were collected. For each CD experiment, two distinct duplicates were acquired and combined. BSA was fixed at 1 mg/mL, solvent concentrations ranging from 0.1 to 200 mM were used, and the spectra were translated to MRE after being expressed in terms of molar ellipticity. Spectral deconvolution was carried out with DichroWeb using the CONTIN-LL deconvolution algorithm with the SMP180 reference set.

[3] = max. conc. first capillary below 1st CAC (monomer)

SMILES: CCn1cc[n+](C)c1.O=S(=O)([O-])C(F)(F)C(F)(F)C(F)(F)C(F)(F)F [1-ethyl-3-methylimidazolium perfluorobutane sulfonate]
- Kd [1, 3]: no binding detected
- Kd ([1]; max. conc. first capillary in 1st CAC range, read-out: Kd): 1610 ± 390 µM
- Kd ([1]; max. conc. first capillary in 2nd CAC range, read-out: Kd): 1730 ± 420 µM
- Kd ([1]; max. conc. first capillary in 3rd CAC range, read-out: Kd): 2860 ± 1460 µM
- Kd ([1]; max. conc. first capillary in 4th CAC range): no binding detected
- Distorted Alpha Helix ([2]; 0.1 mM component): 0.206
- Distorted Beta Sheet ([2]; 0.1 mM component): 0.029
- Regular Alpha Helix ([2]; 0.1 mM component): 0.407
- Regular Beta Sheet ([2]; 0.1 mM component): 0.000
- Turns ([2]; 0.1 mM component): 0.142
- Unordered ([2]; 0.1 mM component): 0.216
- Distorted Alpha Helix ([2]; 1 mM component): 0.210
- Distorted Beta Sheet ([2]; 1 mM component): 0.025
- Regular Alpha Helix ([2]; 1 mM component): 0.401
- Regular Beta Sheet ([2]; 1 mM component): 0.000
- Turns ([2]; 1 mM component): 0.137
- Unordered ([2]; 1 mM component): 0.226
- Distorted Alpha Helix ([2]; 5 mM component): 0.207
- Distorted Beta Sheet ([2]; 5 mM component): 0.027
- Regular Alpha Helix ([2]; 5 mM component): 0.406
- Regular Beta Sheet ([2]; 5 mM component): 0.007
- Turns ([2]; 5 mM component): 0.138
- Unordered ([2]; 5 mM component): 0.215
- Distorted Alpha Helix ([2]; 25 mM component): 0.197
- Distorted Beta Sheet ([2]; 25 mM component): 0.035
- Regular Alpha Helix ([2]; 25 mM component): 0.384
- Regular Beta Sheet ([2]; 25 mM component): 0.023
- Turns ([2]; 25 mM component): 0.149
- Unordered ([2]; 25 mM component): 0.212
- Distorted Alpha Helix ([2]; 55 mM component): 0.210
- Distorted Beta Sheet ([2]; 55 mM component): 0.026
- Regular Alpha Helix ([2]; 55 mM component): 0.402
- Regular Beta Sheet ([2]; 55 mM component): 0.000
- Turns ([2]; 55 mM component): 0.140
- Unordered ([2]; 55 mM component): 0.223
- Distorted Alpha Helix ([2]; 90 mM component): 0.207
- Distorted Beta Sheet ([2]; 90 mM component): 0.026
- Regular Alpha Helix ([2]; 90 mM component): 0.382
- Regular Beta Sheet ([2]; 90 mM component): 0.004
- Turns ([2]; 90 mM component): 0.142
- Unordered ([2]; 90 mM component): 0.239
- Distorted Alpha Helix ([2]; 120 mM component): 0.206
- Distorted Beta Sheet ([2]; 120 mM component): 0.032
- Regular Alpha Helix ([2]; 120 mM component): 0.405
- Regular Beta Sheet ([2]; 120 mM component): 0.014
- Turns ([2]; 120 mM component): 0.147
- Unordered ([2]; 120 mM component): 0.196
- Distorted Alpha Helix ([2]; 200 mM component): 0.183
- Distorted Beta Sheet ([2]; 200 mM component): 0.025
- Regular Alpha Helix ([2]; 200 mM component): 0.316
- Regular Beta Sheet ([2]; 200 mM component): 0.014
- Turns ([2]; 200 mM component): 0.108
- Unordered ([2]; 200 mM component): 0.354

- Kd ([1]; max. conc. first capillary 12.5 mM (monomer)): no binding detected
- Kd ([1]; max. conc. first capillary 400 mM (monomer)): no binding detected
- Distorted Alpha Helix ([2]; 0.1 mM component): 0.207
- Distorted Beta Sheet ([2]; 0.1 mM component): 0.028
- Regular Alpha Helix ([2]; 0.1 mM component): 0.403
- Regular Beta Sheet ([2]; 0.1 mM component): 0.008
- Turns ([2]; 0.1 mM component): 0.141
- Unordered ([2]; 0.1 mM component): 0.212
- Distorted Alpha Helix ([2]; 1 mM component): 0.215
- Distorted Beta Sheet ([2]; 1 mM component): 0.023
- Regular Alpha Helix ([2]; 1 mM component): 0.419
- Regular Beta Sheet ([2]; 1 mM component): 0.000
- Turns ([2]; 1 mM component): 0.135
- Unordered ([2]; 1 mM component): 0.208
- Distorted Alpha Helix ([2]; 5 mM component): 0.209
- Distorted Beta Sheet ([2]; 5 mM component): 0.025
- Regular Alpha Helix ([2]; 5 mM component): 0.403
- Regular Beta Sheet ([2]; 5 mM component): 0.000
- Turns ([2]; 5 mM component): 0.136
- Unordered ([2]; 5 mM component): 0.227
- Distorted Alpha Helix ([2]; 25 mM component): 0.180
- Distorted Beta Sheet ([2]; 25 mM component): 0.031
- Regular Alpha Helix ([2]; 25 mM component): 0.297
- Regular Beta Sheet ([2]; 25 mM component): 0.020
- Turns ([2]; 25 mM component): 0.128
- Unordered ([2]; 25 mM component): 0.344
- Distorted Alpha Helix ([2]; 55 mM component): 0.217
- Distorted Beta Sheet ([2]; 55 mM component): 0.021
- Regular Alpha Helix ([2]; 55 mM component): 0.390
- Regular Beta Sheet ([2]; 55 mM component): 0.000
- Turns ([2]; 55 mM component): 0.131
- Unordered ([2]; 55 mM component): 0.240
- Distorted Alpha Helix ([2]; 90 mM component): 0.202
- Distorted Beta Sheet ([2]; 90 mM component): 0.026
- Regular Alpha Helix ([2]; 90 mM component): 0.382
- Regular Beta Sheet ([2]; 90 mM component): 0.007
- Turns ([2]; 90 mM component): 0.136
- Unordered ([2]; 90 mM component): 0.247
- Distorted Alpha Helix ([2]; 120 mM component): 0.212
- Distorted Beta Sheet ([2]; 120 mM component): 0.019
- Regular Alpha Helix ([2]; 120 mM component): 0.378
- Regular Beta Sheet ([2]; 120 mM component): 0.000
- Turns ([2]; 120 mM component): 0.126
- Unordered ([2]; 120 mM component): 0.266
- Distorted Alpha Helix ([2]; 200 mM component): 0.223
- Distorted Beta Sheet ([2]; 200 mM component): 0.024
- Regular Alpha Helix ([2]; 200 mM component): 0.411
- Regular Beta Sheet ([2]; 200 mM component): 0.000
- Turns ([2]; 200 mM component): 0.136
- Unordered ([2]; 200 mM component): 0.206
SMILES: CCCCn1cc[n+](C)c1.O=S(=O)([O-])C(F)(F)F [[C4C1Im][CF3SO3], 1-butyl-3-methylimidazolium trifluoromethanesulfonate]

SMILES: C[N+](C)(C)CCO.O=S(=O)([O-])C(F)(F)C(F)(F)C(F)(F)C(F)(F)F [[N1112(OH)][C4F9SO3], (2-hydroxyethyl)trimethylammonium perfluorobutane sulfonate]
- Kd [1, 3]: no binding detected
- Kd ([1]; max. conc. first capillary in 3rd CAC range): no binding detected
- Distorted Alpha Helix ([2]; 0.1 mM component): 0.214
- Distorted Beta Sheet ([2]; 0.1 mM component): 0.025
- Regular Alpha Helix ([2]; 0.1 mM component): 0.418
- Regular Beta Sheet ([2]; 0.1 mM component): 0.000
- Turns ([2]; 0.1 mM component): 0.138
- Unordered ([2]; 0.1 mM component): 0.205
- Distorted Alpha Helix ([2]; 1 mM component): 0.225
- Distorted Beta Sheet ([2]; 1 mM component): 0.024
- Regular Alpha Helix ([2]; 1 mM component): 0.428
- Regular Beta Sheet ([2]; 1 mM component): 0.000
- Turns ([2]; 1 mM component): 0.138
- Unordered ([2]; 1 mM component): 0.185
- Distorted Alpha Helix ([2]; 5 mM component): 0.222
- Distorted Beta Sheet ([2]; 5 mM component): 0.025
- Regular Alpha Helix ([2]; 5 mM component): 0.423
- Regular Beta Sheet ([2]; 5 mM component): 0.000
- Turns ([2]; 5 mM component): 0.139
- Unordered ([2]; 5 mM component): 0.192
- Distorted Alpha Helix ([2]; 25 mM component): 0.215
- Distorted Beta Sheet ([2]; 25 mM component): 0.025
- Regular Alpha Helix ([2]; 25 mM component): 0.406
- Regular Beta Sheet ([2]; 25 mM component): 0.000
- Turns ([2]; 25 mM component): 0.140
- Unordered ([2]; 25 mM component): 0.214
- Distorted Alpha Helix ([2]; 55 mM component): 0.208
- Distorted Beta Sheet ([2]; 55 mM component): 0.027
- Regular Alpha Helix ([2]; 55 mM component): 0.392
- Regular Beta Sheet ([2]; 55 mM component): 0.000
- Turns ([2]; 55 mM component): 0.144
- Unordered ([2]; 55 mM component): 0.228
- Distorted Alpha Helix ([2]; 90 mM component): 0.199
- Distorted Beta Sheet ([2]; 90 mM component): 0.036
- Regular Alpha Helix ([2]; 90 mM component): 0.376
- Regular Beta Sheet ([2]; 90 mM component): 0.022
- Turns ([2]; 90 mM component): 0.152
- Unordered ([2]; 90 mM component): 0.215
- Distorted Alpha Helix ([2]; 120 mM component): 0.205
- Distorted Beta Sheet ([2]; 120 mM component): 0.032
- Regular Alpha Helix ([2]; 120 mM component): 0.400
- Regular Beta Sheet ([2]; 120 mM component): 0.012
- Turns ([2]; 120 mM component): 0.147
- Unordered ([2]; 120 mM component): 0.203
- Distorted Alpha Helix ([2]; 200 mM component): 0.207
- Distorted Beta Sheet ([2]; 200 mM component): 0.032
- Regular Alpha Helix ([2]; 200 mM component): 0.406
- Regular Beta Sheet ([2]; 200 mM component): 0.017
- Turns ([2]; 200 mM component): 0.147
- Unordered ([2]; 200 mM component): 0.191
